Reference: ChEMBL document CHEMBL5052853, “Isoxazole derivatives targeting tacc3 as anticancer agents” (2021)
Calls of active or inactive are those of the source. No cut-off for these calls is given here.

Assays:
[1] = Toxicity in mouse 4T1-Luc cells xenografted immunocompetent female mouse assessed as animal survival at 50 mg/kg, po administered every day; assay type: organism-based; settings: in vivo
[2] = Toxicity in female nude mouse assessed as body weight at 500 mg/kg, po administered once and measured after 3 days of administration; assay type: organism-based; settings: in vivo, 72 h, time 3 day
[3] = Toxicity in female nude mouse assessed as body weight at 500 mg/kg, po administered once and measured after 1 day of administration; assay type: organism-based; settings: in vivo, 24 h
[4] = Toxicity in mouse EMt6 cells xenografted syngeneic Balb/c mouse assessed as effect on body weight; settings: in vivo
[5] = test system: JIMT-1; assay: Induction of DNA damage in human JIMT-1 cells at 200 nM assessed as change in p-H2AX levels in presence of Mps1 inhibitor TC Mps1 and measured by Western blot analysis; assay type: functional, cell-based
[6] = Toxicity in female nude mouse assessed as body weight at 100 mg/kg, po after 5 days of administration; assay type: organism-based; settings: in vivo, 120 h, time 5 day
[7] = test system: JIMT-1; assay: Antitumor activity in human JIMT-1 cells xenografted female nude mouse at 25 mg/kg, po administered for 23 days; assay type: functional, organism-based; settings: time 23.0 day
[8] = test system: HCT-116; assay: Antitumor activity in human HCT-116 cells xenografted immunocompromised female nude mouse at 25 to 50 mg/kg, po administered daily; assay type: functional, organism-based; settings: dose 25-50 mg/kg
[9] = Plasma protein binding in human assessed as unbound fraction; assay type: ADME, cell-free
[10] = Toxicity in female nude mouse assessed as body weight at 100 mg/kg, po after 1 day of administration; assay type: organism-based; settings: in vivo, 24 h
[11] = Toxicity in female nude mouse assessed as body weight at 100 mg/kg, po after 7 days of administration; assay type: organism-based; settings: in vivo, 168 h, time 7 day
[12] = test system: JIMT-1; assay: Induction of mitotic arrest in human JIMT-1 cells assessed as change in p-histone H3 levels and measured by Western blot analysis; assay type: functional, cell-based; settings: dose 0.1-5 µM
[13] = Toxicity in mouse EMT6 cells xenografted syngeneic Balb/c mouse assessed as animal survival rate measured by Kaplan-Meier plot analysis; settings: in vivo
[14] = test system: JIMT-1; assay: Antitumor activity in human JIMT-1 cells xenografted female nude mouse at 2 mg/kg, po administered every other day; assay type: functional, organism-based
[15] = test system: RT-112; assay: Induction of mitotic arrest in human RT-112 cells assessed as decrease in ERK1/2 phosphorylation at 5 uM measured by western blot analysis; assay type: functional, cell-based
[16] = test system: MDA-MB-231; assay: Antiproliferative activity against human MDA-MB-231 cells; assay type: functional, cell-based
[17] = test system: JIMT-1; assay: Induction of DNA damage in human JIMT-1 cells assessed as change in p-H2AX levels and measured by Western blot analysis; assay type: functional, cell-based; settings: dose 0.1-5 µM
[18] = test system: HCC1954; assay: Antiproliferative activity against human HCC1954 cells; assay type: functional, cell-based
[19] = test system: 4T1; assay: Antitumor activity in mouse 4T1-Luc cells xenografted immunocompetent female mouse assessed as impairment of metastatic growth at 50 mg/kg, po administered every day; assay type: functional, organism-based
[20] = Kinetic solubility in sodium phosphate buffer at pH 7.4 at 25 degree C after 2 hrs; assay type: physicochemical; settings: read-out: Kinetic_solubility
[21] = test system: JIMT-1; assay: Induction of mitotic arrest in human JIMT-1 cells assessed as increase in multipolar spindles formation at 200 to 500 nM; assay type: functional, cell-based; settings: dose 200-500 nM
[22] = test system: RT-112; assay: Antiproliferative activity against human RT-112 cells after 3 days by SRB assay; assay type: functional, cell-based; settings: RT-112, 72 h
[23] = Toxicity in human JIMT-1 cells xenografted female nude mouse assessed as effect on body weight at 5 mg/kg, po administered every other day; assay type: organism-based; settings: in vivo
[24] = Toxicity in female nude mouse assessed as body weight at 100 mg/kg, po after 3 days of administration; assay type: organism-based; settings: in vivo, 72 h, time 3 day
[25] = test system: JIMT-1; assay: Antiproliferative activity against human JIMT-1 cells after 72 hrs by SRB assay; assay type: functional, cell-based; settings: JIMT-1, 72 h
[26] = test system: JIMT-1; assay: Induction of mitotic arrest in human JIMT-1 cells assessed as increase in aberrant spindle formation at 200 to 500 nM measured by DAPI staining method; assay type: functional, cell-based; settings: dose 200-500 nM
[27] = Toxicity in female nude mouse assessed as organ toxicity at 500 mg/kg, po administered once for 1 to 3 days; assay type: organism-based; settings: in vivo, time 1-3 day
[28] = test system: JIMT-1; assay: Induction of apoptosis in human JIMT-1 cells assessed as increase in apoptotic cells at 500 nM measured by Annexin-V and PI staining method (reference value: 4.1 +/- 0.3 %); assay type: functional
[29] = test system: JIMT-1; assay: Antitumor activity in human JIMT-1 cells xenografted female nude mouse at 5 mg/kg, po administered every other day; assay type: functional, organism-based
[30] = test system: JIMT-1; assay: Induction of apoptosis in human JIMT-1 cells assessed as change in cleaved caspase-3 levels and measured by Western blot analysis; assay type: functional, cell-based; settings: dose 0.1-5 µM
[31] = Toxicity in human JIMT-1 cells xenografted female nude mouse assessed as effect on body weight at 2 mg/kg, po administered every other day; assay type: organism-based; settings: in vivo
[32] = test system: EMT6; assay: Antitumor activity in mouse EMT6 xenografted cells syngeneic Balb/c mouse
[33] = test system: JIMT-1; assay: Stabilization of human TACC3 expressed in JIMT-1 cells at 10 uM incubated for 20 mins and measured in presence of pronase by drug affinity responsive target stability assay; assay type: cell-based
[34] = test system: RT-4; assay: Antiproliferative activity against human RT-4 cells after 3 days by SRB assay; assay type: functional, cell-based; settings: RT-4, 72 h
[35] = Toxicity in human JIMT-1 cells xenografted female nude mouse assessed as effect on body weight at 25 mg/kg, po administered for 23 days; assay type: organism-based; settings: in vivo, 552 h, time 23 day
[36] = Toxicity in female nude mouse assessed as body weight at 100 mg/kg, po after 2 days of administration; assay type: organism-based; settings: in vivo, 48 h, time 2 day
[37] = test system: JIMT-1; assay: Induction of mitotic arrest in human JIMT-1 cells at 200 nM assessed as change in p-histone H3 levels in presence of Mps1 inhibitor TC Mps1 and measured by Western blot analysis; assay type: functional, cell-based
[38] = Toxicity in human HCT-116 cells xenografted immunocompromised female nude mouse assessed as effect on body weight at 25 to 50 mg/kg, po administered daily; assay type: organism-based; settings: in vivo, dose 25-50 mg/kg
[39] = test system: JIMT-1; assay: Antitumor activity in human JIMT-1 cells xenografted female immunodeficient nude mouse at 5 mg/kg, po administered every other day for 30 days; assay type: functional, organism-based; settings: time 30.0 day
[40] = Toxicity in female nude mouse assessed as body weight at 100 mg/kg, po after 6 days of administration; assay type: organism-based; settings: in vivo, 144 h, time 6 day
[41] = Binding affinity to purified recombinant human TACC3 by isothermal titration calorimetry
[42] = Toxicity in human JIMT-1 cells xenografted female nude mouse assessed as effect on body weight at 2 mg/kg, iv administered once every 2 weeks; assay type: organism-based; settings: in vivo, 336 h
[43] = test system: JIMT-1; assay: Inhibition of colony formation in human JIMT-1 cells at 0.1 to 1 uM assessed as decrease in colony number incubated for 12 days by crystal violet staining based assay; assay type: functional, cell-based; settings: dose 0.1-1 µM, time 12.0 day
[44] = Toxicity in human JIMT-1 cells xenografted female immunodeficient nude mouse assessed as effect on body weight at 5 mg/kg, po administered every other day for 30 days; assay type: organism-based; settings: in vivo, 720 h, time 30 day
[45] = test system: JIMT-1; assay: Stabilization of human TACC3 expressed in JIMT-1 cells at 1 uM incubated for 6 hrs by cellular thermal shift assay; assay type: cell-based
[46] = Toxicity in female nude mouse assessed as body weight at 500 mg/kg, po administered once and measured after 2 days of administration; assay type: organism-based; settings: in vivo, 48 h, time 2 day
[47] = Toxicity in female nude mouse assessed as body weight at 100 mg/kg, po after 4 days of administration; assay type: organism-based; settings: in vivo, 96 h, time 4 day
[48] = test system: CAL-51; assay: Antiproliferative activity against human CAL-51 cells; assay type: functional, cell-based
[49] = test system: CT26; assay: Antitumor activity in mouse CT26 cells xenografted syngeneic immunocompetent Balb/c mouse at 25 to 50 mg/kg, po administered daily; assay type: functional, organism-based; settings: dose 25-50 mg/kg
[50] = test system: JIMT-1; assay: Induction of mitotic arrest in human JIMT-1 cells assessed as increased localization of spindle assembly checkpoint marker BuBR1 to chromosomes at 500 nM measured by immunofluorescence staining method; assay type: functional, cell-based
[51] = test system: JIMT-1; assay: Antitumor activity in human JIMT-1 cells xenografted female nude mouse at 2 mg/kg, iv administered once every 2 weeks; assay type: functional, organism-based
[52] = test system: MCF-12A; assay: Antiproliferative activity against human MCF-12A cells; assay type: functional, cell-based
[53] = test system: JIMT-1; assay: Induction of apoptosis in human JIMT-1 cells assessed as change in cleaved PARP levels and measured by Western blot analysis; assay type: functional, cell-based; settings: dose 0.1-5 µM
[54] = test system: HCC1143; assay: Antiproliferative activity against human HCC1143 cells; assay type: functional, cell-based
[55] = test system: JIMT-1; assay: Induction of apoptosis in human JIMT-1 cells at 200 nM assessed as change in cleaved PARP levels in presence of Mps1 inhibitor TC Mps1 and measured by Western blot analysis; assay type: functional, cell-based
[56] = Toxicity in mouse CT26 cells xenografted syngeneic immunocompetent Balb/c mouse assessed as effect on body weight at 25 to 50 mg/kg, po administered daily; assay type: organism-based; settings: in vivo, dose 25-50 mg/kg

`COc1ccc(-c2cc(Nc3ccnc(N4CCOCC4)n3)on2)cc1` showed an MSD [1] of 28 days, an Activity [2] of 21.5 g and an Activity [3] of 21.1 g. For the same compound, the Activity [4] was “Non-Toxic”, the Activity [5] was “Active” and the Activity [6] was 16.5 g. The Activity [7] was “Active”, the Activity [8] was “Active” and the Activity [9] was 1.13%. For the same compound, the Activity [10] was 17.4 g, the Activity [11] was 16.8 g and the Activity [12] was “Dose-Dependent Effect”. The MSD [13] was 22 days, the Activity [14] was “Active” and the Activity [15] was “Active”. The Activity [16] was “Active”, the Activity [17] was “Dose-Dependent Effect” and the Activity [18] was “Active”. The Activity [19] was “Active”, the solubility kinetic at 2 h [20] was < 1 µM and the Activity [21] was “Active”. The IC50 [22] was 300 nM, the Activity [23] was “Non-Toxic” and the Activity [24] was 16.3 g. For the same compound, the IC50 [25] was 120 nM, the Activity [26] was “Active” and the Activity [27] was “Non-Toxic”. The Activity [28] was 45.6%, the Activity [29] was “Active” and the Activity [30] was “Dose-Dependent Effect”. The Activity [31] was “Non-Toxic”, the Activity [32] was “Active” and the Activity [33] was “Active”. For the same compound, the IC50 [34] was 3.66 µM, the Activity [35] was “Non-Toxic” and the Activity [36] was 16.2 g. For the same compound, the Activity [37] was “Active”, the Activity [38] was “Non-Toxic” and the Activity [39] was “Active”. For the same compound, the Activity [40] was 16.7 g, the Kd [41] was 1.5 nM and the Activity [42] was “Non-Toxic”. The Activity [43] was “Active”, the Activity [44] was “Non-Toxic” and the Activity [45] was “Active”. The Activity [46] was 20.9 g, the Activity [47] was 17 g and the Activity [48] was “Active”. The Activity [49] was “Active”, the Activity [50] was “Active” and the Activity [51] was “Active”. For the same compound, the IC50 [52] was > 10 µM, the Activity [53] was “Dose-Dependent Effect” and the Activity [54] was “Active”. The Activity [55] was “Active” and the Activity [56] was “Non-Toxic”.
